In ChEMBL document CHEMBL1149401, “Isolation and inhibitory activity against ERK phosphorylation of hydroxyanthraquinones from rhubarb” (2006):
The source made the active and inactive calls. The rule behind the calls is not given here.

Tests used:
A-431 = assay: Antiproliferative activity against human epidermal carcinoma A431 cell line at 20 uM by MTT method; assay type: functional
Fusarium oxysporum = assay: Antifungal activity against Fusarium oxysporum at 0.5 mg/ml; assay type: functional
Phytophthora infestans = assay: Antifungal activity against Phytopthora infestans at 0.5 mg/ml; assay type: functional
[1] = molecular target: Platelet-derived growth factor receptor (Homo sapiens) (UniProt P09619+P16234); assay: Inhibitory activity on PDGF-induced ERK phosphorylation in NIH3T3 cells at 20 uM; assay type: cell-based
Fusarium graminearum = assay: Antifungal activity against Gibberella zeae at 0.5 mg/ml; assay type: functional
PC-3 = assay: Antiproliferative activity against prostate cancer PC3 cell line at 20 uM by MTT method; assay type: functional; conditions: Homo sapiens
[2] = molecular target: Epidermal growth factor receptor (Homo sapiens) (UniProt P00533); assay: Inhibitory activity on EGF-induced ERK phosphorylation in prostate cancer PC3 cell line at 20 uM; assay type: cell-based; conditions: PC-3
Chain of Epidermal growth factor receptor (Homo sapiens) (P00533 whole entry): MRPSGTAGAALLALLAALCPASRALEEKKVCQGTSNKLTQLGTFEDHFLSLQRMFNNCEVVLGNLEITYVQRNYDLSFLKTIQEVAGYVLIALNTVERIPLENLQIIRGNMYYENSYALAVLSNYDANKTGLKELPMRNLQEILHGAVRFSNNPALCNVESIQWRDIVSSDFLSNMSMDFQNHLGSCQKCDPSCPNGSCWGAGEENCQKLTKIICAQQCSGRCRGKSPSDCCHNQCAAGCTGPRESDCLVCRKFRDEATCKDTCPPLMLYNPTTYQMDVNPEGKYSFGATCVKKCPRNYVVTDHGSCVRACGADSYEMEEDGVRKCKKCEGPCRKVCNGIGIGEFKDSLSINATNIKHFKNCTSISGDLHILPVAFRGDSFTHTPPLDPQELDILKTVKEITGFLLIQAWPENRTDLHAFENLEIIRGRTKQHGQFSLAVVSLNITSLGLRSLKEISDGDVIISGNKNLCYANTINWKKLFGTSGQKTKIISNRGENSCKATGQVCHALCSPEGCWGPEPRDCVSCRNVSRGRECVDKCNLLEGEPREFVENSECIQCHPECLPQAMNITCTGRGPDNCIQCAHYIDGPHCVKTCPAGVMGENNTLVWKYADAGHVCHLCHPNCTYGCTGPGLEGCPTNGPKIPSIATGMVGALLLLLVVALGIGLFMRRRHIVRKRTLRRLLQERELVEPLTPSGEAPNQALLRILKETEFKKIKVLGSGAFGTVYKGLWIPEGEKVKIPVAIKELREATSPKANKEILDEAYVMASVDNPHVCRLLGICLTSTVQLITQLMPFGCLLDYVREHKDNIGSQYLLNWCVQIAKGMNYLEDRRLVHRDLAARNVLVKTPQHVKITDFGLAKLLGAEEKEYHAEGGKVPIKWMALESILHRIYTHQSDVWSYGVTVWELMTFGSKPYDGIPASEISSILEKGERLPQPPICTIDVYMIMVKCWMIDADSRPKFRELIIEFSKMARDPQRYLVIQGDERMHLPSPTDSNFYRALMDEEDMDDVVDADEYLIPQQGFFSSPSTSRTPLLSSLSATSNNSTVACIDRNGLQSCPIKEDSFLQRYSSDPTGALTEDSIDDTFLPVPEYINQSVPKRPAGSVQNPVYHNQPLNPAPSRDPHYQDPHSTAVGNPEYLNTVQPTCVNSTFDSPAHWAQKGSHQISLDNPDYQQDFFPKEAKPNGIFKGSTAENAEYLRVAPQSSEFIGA

SMILES: Cc1cc(O)c2c(c1)C(=O)c1cc(O)cc(O)c1C2=O [EMODIN]
- inhibition (A-431): inactive
- inhibition at 500 µg/mL (Fusarium oxysporum): 9.37%
- inhibition at 500 µg/mL (Phytophthora infestans): 21.2%
- Activity [1]: inactive
- inhibition at 500 µg/mL (Fusarium graminearum): 25.7%
- inhibition (PC-3): inactive

SMILES: O=C1c2cccc(O)c2C(=O)c2c(O)cc(CO)cc21 [ALOE-EMODIN]
- inhibition at 20 µM (A-431): 73.6%
- inhibition at 500 µg/mL (Fusarium oxysporum): 28.8%
- inhibition at 500 µg/mL (Phytophthora infestans): 24.4%
- Activity [1]: inactive
- Activity [2]: Active
- inhibition at 500 µg/mL (Fusarium graminearum): 37.1%
- inhibition at 20 µM (PC-3): 63.4%

SMILES: O=C(O)c1cc(O)c2c(c1)C(=O)c1cccc(O)c1C2=O [RHEIN]
- inhibition (A-431): inactive
- inhibition at 500 µg/mL (Fusarium oxysporum): 39.8%
- inhibition at 500 µg/mL (Phytophthora infestans): 39.5%
- Activity [1]: inactive
- inhibition at 500 µg/mL (Fusarium graminearum): 33.4%
- inhibition at 20 µM (PC-3): 54.2%

SMILES: COc1cc(O)c2c(c1)C(=O)c1cc(C)cc(O)c1C2=O [PHYSCION]
- inhibition at 20 µM (A-431): 80.5%
- inhibition at 500 µg/mL (Fusarium oxysporum): 0%
- inhibition at 500 µg/mL (Phytophthora infestans): 19.1%
- Activity [1]: inactive
- inhibition at 500 µg/mL (Fusarium graminearum): 10.1%
- inhibition at 20 µM (PC-3): 73.2%

SMILES: Cc1cc(O)c2c(c1)C(=O)c1cccc(O)c1C2=O [CHRYSOPHANOL]
- inhibition at 20 µM (A-431): 21.1%
- inhibition at 500 µg/mL (Fusarium oxysporum): 5.4%
- inhibition at 500 µg/mL (Phytophthora infestans): 2.4%
- Activity [1]: inactive
- inhibition at 500 µg/mL (Fusarium graminearum): 0%
- inhibition at 20 µM (PC-3): 19.5%
